Article PMC5724969 (Nature chemical biology, 2017)
Where two headings read alike, the source gives them in different places.

System: chPylRS (chimeric pyrrolysyl-tRNA synthetase)
Experiment: […]-tRNA aminoacylation assay, nuclease P1/TLC
Type: biochemical, Methanosarcina mazei; Methanosarcina barkeri
Details: tRNA(Pyl), 10 mM MgCl2, pH 7.2

Row | Km (read-out: KM ^ATP, BocK as amino acid) [µM] | Compound | Km (read-out: KM^BocK, ATP) [µM]
1 | 2.54 ± 0.16 | Nc1ncnc2c1ncn2[C@@H]1O[C@H](COP(=O)(O)OP(=O)(O)OP(=O)(O)O)[C@@H](O)[C@H]1O [ATP] | –
2 | – | CC(C)(C)OC(=O)NCCCC[C@H](N)C(=O)O [compound 2, BocK] | 1030 ± 50
